Measurements as given in ChEMBL document CHEMBL3639039, “Small molecule inhibitors of RGS proteins” (2014).

Experiments:
[1] = molecular target: Regulator of G-protein signaling 16 (Homo sapiens, UniProt O15492); assay: Inhibitory Assay: FCPIA Characterization of RGS Inhibitory Activity: CCG-50014 (FIG. 1) was originally identified as a potential inhibitor of RGS8 and RGS16 in a polyplex high throughput screen to identify inhibitors of the RGS-Gα interaction [4]. This activity was confirmed by analyzing the effect of CCG-50014 on several different RGS proteins with freshly reordered compound using multiplexed …
[2] = molecular target: Regulator of G-protein signaling 19 (Homo sapiens, UniProt P49795); assay: as above
Sequence of Regulator of G-protein signaling 19 (P49795 whole entry, looked up, change not shown): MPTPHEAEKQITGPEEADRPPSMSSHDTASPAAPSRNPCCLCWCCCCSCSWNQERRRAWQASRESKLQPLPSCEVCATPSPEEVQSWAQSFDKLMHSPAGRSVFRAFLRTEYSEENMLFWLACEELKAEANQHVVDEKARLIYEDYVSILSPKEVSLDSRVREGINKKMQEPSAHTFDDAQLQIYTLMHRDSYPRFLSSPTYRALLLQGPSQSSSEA

Sequence of Regulator of G-protein signaling 16 (O15492 whole entry, looked up, stated change not applied): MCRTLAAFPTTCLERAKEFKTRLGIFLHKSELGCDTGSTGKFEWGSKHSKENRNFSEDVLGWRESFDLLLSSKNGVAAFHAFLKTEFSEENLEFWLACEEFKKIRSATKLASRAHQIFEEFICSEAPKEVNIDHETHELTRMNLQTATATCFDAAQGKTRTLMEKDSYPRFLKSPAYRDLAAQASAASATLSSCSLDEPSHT

IC50 [1]: 3.5 µM
IC50 [2]: 0.12 µM
SMILES: Cc1ccc(-n2sc(=O)n(Cc3ccc(F)cc3)c2=O)cc1
